Measurements published in US20190388425A1, “SUBSTITUTED IMIDAZOPYRIDINPYRIMIDINES” (Bayer Pharma Aktiengesellschaft, priority 2017, published 2019).

biological target: T1, human full-length MKNK1 (Homo sapiens, UniProt Q9BUB5, T385D); assay: MKNK1 kinase high ATP assay (TR-FRET); assay type: biochemical; details: not given
T1 construct: GST (N); purchased Carna Biosciences 02-145; host or cells: insect cells (baculovirus expression system)
Description: MKNK1 Kinase High ATP Assay
MKNK1-inhibitory activity at high ATP of compounds of the present invention after their preincubation with MKNK1 was quantified employing the TR-FRET-based MKNK1 high ATP assay as described in the following paragraphs.
As substrate for the kinase reaction the biotinylated peptide biotin-Ahx-[…] (C-terminus in amide form) was used, which can be purchased e.g. from the company Biosyntan (Berlin-Buch, Germany).
For the assay 50 nL of a 100 fold concentrated solution of the test compound in DMSO was pipetted into a black low volume 384 well microtiter plate (Greiner Bio-One, Frickenhausen, Germany), 2 μL of a solution of MKNK1 in aqueous assay buffer [50 mM HEPES pH 7.5, 5 mM MgCl2, 1.0 mM dithiothreitol, 0.005% (v/v) Nonidet-P40 (Sigma)] was added and the mixture was incubated for 15 min at 22° C. to allow pre-binding of the test compounds to the enzyme before the start of the kinase reaction. Then the kinase reaction was started by the addition of 3 μL of a solution of adenosine-tri-phosphate (ATP, 3.3 mM=>final conc. in the 5 μL assay volume is 2 mM) and substrate (0.1 μM=>final conc. in the 5 μL assay volume is 0.06 μM) in assay buffer and the resulting mixture was incubated for a reaction time of 30 min at 22° C. The concentration of MKNK1 was adjusted depending of the activity of the enzyme lot and was chosen appropriate to have the assay in the linear range, typical concentrations were in the range of 0.003 μg/mL. The reaction was stopped by the addition of 5 μL of a solution of TR-FRET detection reagents (5 nM streptavidine-XL665 [Cisbio Bioassays, Codolet, France] and 1 nM anti-ribosomal protein S6 (pSer236)-antibody from Invitrogen [#44921G] and 1 nM LANCE EU-W1024 labeled ProteinG [Perkin-Elmer, product no. AD0071]) in an aqueous EDTA-solution (100 mM EDTA, 0.1% (w/v) bovine serum albumin in 50 mM HEPES pH 7.5).
The resulting mixture was incubated for 1 h at 22° C. to allow the formation of complex between the phosphorylated biotinylated peptide and the detection reagents. Subsequently the amount of phosphorylated substrate was evaluated by measurement of the resonance energy transfer from the Eu-chelate to the streptavidine-XL. Therefore, the fluorescence emissions at 620 nm and 665 nm after excitation at 350 nm were measured in a TR-FRET reader, e.g. a Rubystar (BMG Labtechnologies, Offenburg, Germany) or a Viewlux (Perkin-Elmer). The ratio of the emissions at 665 nm and at 622 nm was taken as the measure for the amount of phosphorylated substrate.

T1 sequence (Q9BUB5 1-424 isoform Q9BUB5-2 T344D): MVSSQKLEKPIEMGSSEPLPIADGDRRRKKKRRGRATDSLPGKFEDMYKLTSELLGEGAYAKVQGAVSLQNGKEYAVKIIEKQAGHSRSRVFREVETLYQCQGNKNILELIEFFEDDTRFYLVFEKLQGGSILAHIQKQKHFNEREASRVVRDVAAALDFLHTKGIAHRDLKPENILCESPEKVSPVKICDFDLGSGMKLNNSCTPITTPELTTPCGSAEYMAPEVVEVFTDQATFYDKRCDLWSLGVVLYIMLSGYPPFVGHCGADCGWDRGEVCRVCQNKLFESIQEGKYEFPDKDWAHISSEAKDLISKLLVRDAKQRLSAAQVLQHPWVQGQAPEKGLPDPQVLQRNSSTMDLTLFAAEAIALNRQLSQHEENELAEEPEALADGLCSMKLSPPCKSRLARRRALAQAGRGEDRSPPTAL

Work on `Cc1cc(Nc2ncnc3sc4c(c23)CC[C@H](C(=O)N2CCC(=O)CC2)C4)c(=O)n2c1C(=O)NC21CCCCC1` [Example 10, 8′-Methyl-6′-({(7S)-7-[(4-oxopiperidin-1-yl)carbonyl]-5,6,7,8-tetrahydro[1]benzothieno[2,3-d]pyrimidin-4-yl}amino)-2′H-spiro[cyclohexane-1,3′-imidazo[1,5-a]pyridine]-1′,5′-dione] yielded an IC50 of 0.3 nM.

same assay, conditions: TR-FRET, 2 mM ATP (high ATP), 15 min preincubation with enzyme, 30 min reaction at 22° C.; read-out: MKNK1 IC50

In order of rising IC50:
1. Cc1cc(Nc2ncnc3sc4c(c23)CC[C@H](C(=O)N2CC[C@H](N(C)C)C2)C4)c(=O)n2c1C(=O)NC21CCCCC1 [Example 9, 6′-{[(7S)-7-{[(3S)-3-(Dimethylamino)pyrrolidin-1-yl]carbonyl}-5,6,7,8-tetrahydro[1]benzothieno[2,3-d]pyrimidin-4-yl]amino}-8′-methyl-2′H-spiro[cyclohexane-1,3′-imidazo[1,5-a]pyridine]-1′,5′-dione]  0.1 nM
2. Cc1cc(Nc2ncnc3sc4c(c23)CC[C@H](C(=O)N(C)C)C4)c(=O)n2c1C(=O)NC21CCCCC1 [Example 2, (7S)—N, N-Dimethyl-4-[(8′-methyl-1′,5′-dioxo-1′,5′-dihydro-2′H-spiro[cyclohexane-1,3′-imidazo[1,5-a]pyridin]-6′-yl)amino]-5,6,7,8-tetrahydro[1]benzothieno[2,3-d]pyrimidine-7-carboxamide]  0.2 nM
3. Cc1cc(Nc2ncnc3sc4c(c23)CC[C@H](C(=O)N(C)CCN(C)C)C4)c(=O)n2c1C(=O)NC21CCCCC1 [Example 12, (7S)—N-[2-(Dimethylamino)ethyl]-N-methyl-4-[(8′-methyl-1′,5′-dioxo-1′,5′-dihydro-2′H-spiro[cyclohexane-1,3′-imidazo[1,5-a]pyridin]-6′-yl)amino]-5,6,7,8-tetrahydro[1]benzothieno[2,3-d]pyrimidine-7-carboxamide]  0.2 nM
4. Cc1cc(Nc2ncnc3sc4c(c23)CC[C@H](C(=O)N2CCC2)C4)c(=O)n2c1C(=O)NC21CCCCC1 [Example 3, 6′-{[(7S)-7-(Azetidin-1-ylcarbonyl)-5,6,7,8-tetrahydro[1]benzothieno[2,3-d]pyrimidin-4-yl]amino}-8′-methyl-2′H-spiro[cyclohexane-1,3′-imidazo[1,5-a]pyridine]-1′,5′-dione]  0.3 nM
5. Cc1cc(Nc2ncnc3sc4c(c23)CC[C@H](C(=O)N2CCOC[C@H]2C)C4)c(=O)n2c1C(=O)NC21CCCCC1 [Example 18, 8′-methyl-6′-{[(7S)-7-{[(3R)-3-methylmorpholin-4-yl]carbonyl}-5,6,7,8-tetrahydro[1]benzothieno[2,3-d]pyrimidin-4-yl]amino}-2′H-spiro[cyclohexane-1,3′-imidazo[1,5-a]pyridine]-1′,5′-dione]  0.3 nM
6. CNC(=O)[C@H]1CCc2c(sc3ncnc(Nc4cc(C)c5n(c4=O)C4(CCCCC4)NC5=O)c23)C1 [Example 4, (7S)—N-Methyl-4-[(8′-methyl-1′,5′-dioxo-1′,5′-dihydro-2′H-spiro[cyclohexane-1,3′-imidazo[1,5-a]pyridin]-6′-yl)amino]-5,6,7,8-tetrahydro[1]benzothieno[2,3-d]pyrimidine-7-carboxamide]  0.4 nM
7. Cc1cc(Nc2ncnc3sc4c(c23)CC[C@H](C(=O)N2C3CCC2CC(=O)C3)C4)c(=O)n2c1C(=O)NC21CCCCC1 [Example 13, 8′-Methyl-6′-({(7S)-7-[(3-oxo-8-azabicyclo[3.2.1]oct-8-yl)carbonyl]-5,6,7,8-tetrahydro[1]benzothieno[2,3-d]pyrimidin-4-yl}amino)-2′H-spiro[cyclohexane-1,3′-imidazo[1,5-a]pyridine]-1′,5′-dione]  0.4 nM
8. Cc1cc(Nc2ncnc3sc4c(c23)CC[C@H](C(=O)N2CC(N)C2)C4)c(=O)n2c1C(=O)NC21CCCCC1 [Example 11, 6′-({(7S)-7-[(3-Aminoazetidin-1-yl)carbonyl]-5,6,7,8-tetrahydro[1]benzothieno[2,3-d]pyrimidin-4-yl}amino)-8′-methyl-2′H-spiro[cyclohexane-1,3′-imidazo[1,5-a]pyridine]-1′,5′-dione]  0.5 nM
9. Cc1cc(Nc2ncnc3sc4c(c23)CC[C@H](C(N)=O)C4)c(=O)n2c1C(=O)NC21CCCCC1 [Example 17, (7S)-4-[(8′-Methyl-1′,5′-dioxo-1′,5′-dihydro-2′H-spiro[cyclohexane-1,3′-imidazo[1,5-a]pyridin]-6′-yl)amino]-5,6,7,8-tetrahydro[1]benzothieno[2,3-d]pyrimidine-7-carboxamide]  0.5 nM
10. Cc1cc(Nc2ncnc3sc4c(c23)CC[C@H](C(=O)N2C[C@H]3C[C@@H]2CO3)C4)c(=O)n2c1C(=O)NC21CCCCC1 [Example 8, 8′-Methyl-6′-({(7S)-7-[(1R,4R)-2-oxa-5-azabicyclo[2.2.1]hept-5-ylcarbonyl]-5,6,7,8-tetrahydro[1]benzothieno[2,3-d]pyrimidin-4-yl}amino)-2′H-spiro[cyclohexane-1,3′-imidazo[1,5-a]pyridine]-1′,5′-dione]  0.6 nM
11. Cc1cc(Nc2ncnc3sc4c(c23)CC[C@H](C(=O)N2CCN(C)[C@@H](C)C2)C4)c(=O)n2c1C(=O)NC21CCCCC1 [Example 14, 6′-{[(7S)-7-{[(3S)-3,4-Dimethylpiperazin-1-yl]carbonyl}-5,6,7,8-tetrahydro[1]benzothieno[2,3-d]pyrimidin-4-yl]amino}-8′-methyl-2′H-spiro[cyclohexane-1,3′-imidazo[1,5-a]pyridine]-1′,5′-dione]  0.8 nM
12. Cc1cc(Nc2ncnc3sc4c(c23)CC[C@H](C(=O)N2CC(N(C)C)C2)C4)c(=O)n2c1C(=O)NC21CCCCC1 [Example 19, 6′-{[(7S)-7-{[3-(Dimethylamino)azetidin-1-yl]carbonyl}-5,6,7,8-tetrahydro[1]benzothieno[2,3-d]pyrimidin-4-yl]amino}-8′-methyl-2′H-spiro[cyclohexane-1,3′-imidazo[1,5-a]pyridine]-1′,5′-dione]  0.9 nM
13. Cc1cc(Nc2ncnc3sc4c(c23)CC[C@H](C(=O)N2CC(C#N)C2)C4)c(=O)n2c1C(=O)NC21CCCCC1 [Example 5, 1-({(7S)-4-[(8′-Methyl-1′,5′-dioxo-1′,5′-dihydro-2′H-spiro[cyclohexane-1,3′-imidazo[1,5-a]pyridin]-6′-yl)amino]-5,6,7,8-tetrahydro[1]benzothieno[2,3-d]pyrimidin-7-yl}carbonyl)azetidine-3-carbonitrile]  1.1 nM
14. Cc1cc(Nc2ncnc3sc4c(c23)CC[C@H](C(=O)N2CC(C)(O)C2)C4)c(=O)n2c1C(=O)NC21CCCCC1 [Example 6, 6′-({(7S)-7-[(3-Hydroxy-3-methylazetidin-1-yl)carbonyl]-5,6,7,8-tetrahydro[1]benzothieno[2,3-d]pyrimidin-4-yl}amino)-8′-methyl-2′H-spiro[cyclohexane-1,3′-imidazo[1,5-a]pyridine]-1′,5′-dione]  1.5 nM
15. Cc1cc(Nc2ncnc3sc4c(c23)CC[C@H](C(=O)O)C4)c(=O)n2c1C(=O)NC21CCC1 [Example 16, (7S)-4-[(8′-Methyl-1′,5′-dioxo-1′,5′-dihydro-2′H-spiro[cyclobutane-1,3′-imidazo[1,5-a]pyridin]-6′-yl)amino]-5,6,7,8-tetrahydro[1]benzothieno[2,3-d]pyrimidine-7-carboxylic acid]  3.9 nM
16. Cc1cc(Nc2ncnc3sc4c(c23)CC[C@H](C(=O)N2CC(NC(=O)OC(C)(C)C)C2)C4)c(=O)n2c1C(=O)NC21CCCCC1 [Example 7, tert-Butyl [1-({(7S)-4-[(8′-methyl-1′,5′-dioxo-1′,5′-dihydro-2′H-spiro[cyclohexane-1,3′-imidazo[1,5-a]pyridin]-6′-yl)amino]-5,6,7,8-tetrahydro[1]benzothieno[2,3-d]pyrimidin-7-yl}carbonyl)azetidin-3-yl]carbamate]  4.2 nM
17. Cc1cc(Nc2ncnc3sc4c(c23)CC[C@H](C(=O)O)C4)c(=O)n2c1C(=O)NC21CCCCC1 [Example 1, (7S)-4-[(8′-Methyl-1′,5′-dioxo-1′,5′-dihydro-2′H-spiro[cyclohexane-1,3′-imidazo[1,5-a]pyridin]-6′-yl)amino]-5,6,7,8-tetrahydro[1]benzothieno[2,3-d]pyrimidine-7-carboxylic acid]  9 nM
18. Cc1cc(Nc2ncnc3sc4c(c23)CC[C@H](C(=O)O)C4)c(=O)n2c1C(=O)NC2(C)C [Example 15, (7S)-4-[(3,3,8-Trimethyl-1,5-dioxo-1,2,3,5-tetrahydroimidazo[1,5-a]pyridin-6-yl)amino]-5,6,7,8-tetrahydro[1]benzothieno[2,3-d]pyrimidine-7-carboxylic acid]  15.6 nM
